# Reference: paper PMC10096180, “Half-Sandwich Type Platinum-Group Metal Complexes of C-Glucosaminyl Azines: Synthesis and Antineoplastic and Antimicrobial Activities” (Molecules, 2023)
# Like-named read-outs stand apart in the source and are kept apart here.
# Key:
# [1] = tested on: A2780 cells; assay: MTT reduction assay, early toxicity, 4 h treatment; type: cell-based; conditions: inhibition at maximum concentration (100 μM) where no plateau, ND = not detectable; for inhibition at 100 µM: Homo sapiens, read-out: A2780 MTT Max Inhibition
# Method: (§1) The complexes described above are intended to replace registered platinum complexes. Platinum complexes constitute the core of the chemotherapy regimen used in ovarian cancer; therefore, we used a cellular model of ovarian cancer, A2780, and primary human dermal fibroblasts as models of non-transformed cells (controls). For the characterization of the complexes, we used an MTT assay after 4 h of treatment for the detection of early toxicity and an SRB assay 48 h after treatment for the detection of cytostasis.
# An MTT reduction assay was measures the activity of mitochondrial complex I and can be used to detect toxicity. The assay was performed in a manner similar to that described in [84]. Briefly, cells were plated in 96-well plates the day before the assay. Cells were treated with the compounds for 4 h; then, MTT was added to a 0.5 mg/mL final concentration, and cells were incubated at 37 °C in a cell incubator for 40–60 min as a function of the cell line being assessed. Culture medium was removed, the reduced MTT dye was dissolved in dimethyl-sulfoxide, and plates were measured in a plate photometer (Thermo Scientific Multiscan GO spectrophotometer, Waltham, MA, USA) at 540 nm. On each plate, wells were designed to contain vehicle-treated cells. In calculations, the readings for these wells were considered to 1, and all readings were expressed relative to these values.
# (§2) Statistical analysis was performed using version 8.0.1 of GraphPad Prism. Values were tested for normal distribution using the Shapiro–Wilk normality test. Nonlinear regression was performed using the built-in “[Inhibitor] vs. response—Variable slope (four parameters), least square fit” utility of GraphPad, which yielded IC50 and Hill slope values if the sigmoid curves reached a plateau of inhibition and there was no decrease between two subsequent data points or when inhibition was over 90%. In other cases, the percentage of inhibition was taken for the maximum concentration (100 μM).
# [2] = tested on: vancomycin-resistant Enterococcus (VRE) clinical isolates; assay: Broth microdilution MIC, clinical VRE isolates; type: cell-based, E. faecium; conditions: 24 h, 0.08–40 μM
# Method: (§3) We used a set of clinical isolates of S. aureus and E. faecium that were collected at the Medical Center of the University of Debrecen (Hungary) between 1 January 2018. and 31 December 2020. The clinical isolates were identified using a Microflex MALDI-TOF mass spectrometer (Bruker, Billerica, MA, USA). The antibiotic susceptibility of the isolates was tested following the European Committee on Antimicrobial Susceptibility Testing (EUCAST) guidelines, which were valid at the time of collection.
# (§4) Microdilution experiments were performed according to the standards of EUCAST [85]. The bacterial isolates to be tested were grown on Mueller–Hinton agar plates. The inoculum density of bacteria was set at 5.0 × 10^5 CFU/mL in microtiter plates in a final volume of 200 μL Mueller–Hinton broth. The tested concentration range was 0.08–40 μM (10 concentrations, twofold serial dilutions), and a drug-free growth control and an inoculum-free negative control were included. The inoculated plates were incubated for 24 h at 37 °C, then visually assessed. Minimum inhibitory concentration (MIC) was defined as the lowest concentration with a 50%≤ inhibitory effect compared to the growth control. All experiments were performed at least twice in duplicate.
# [3] = tested on: Staphylococcus aureus (ATCC29213); assay: Broth microdilution MIC, reference strain; type: cell-based; conditions: 0.08–40 μM, read-out: MIC S. aureus ATCC 29213
# Method: (§5) The reference strains of Staphylococcus aureus (ATCC29213) and Enterococcus faecalis (ATCC29212) were purchased from the ATCC (Manassas, VA, USA).
# as §4
# [4] = tested on: Enterococcus faecalis (ATCC29212); assay: Broth microdilution MIC, reference strain; type: cell-based; conditions: 24 h, tested range 0.08–40 μM, read-out: MIC E. faecalis ATCC 29,212
# Method: as §5, §4
# [5] = tested on: methicillin-resistant Staphylococcus aureus (MRSA) clinical isolates; assay: Broth microdilution MIC, clinical MRSA isolates; type: cell-based; conditions: 24 h, 0.08–40 μM
# Method: as §3, §4
# [6] = tested on: A2780 cells; assay: SRB binding assay, cytostasis, 48 h treatment; type: cell-based; conditions: up to 100 μM, ND = not detectable
# Method: as §1
# An SRB assay measures protein content of cells in correlation with the cell number in an assay well and can therefore be used to assess cell proliferation or long-term cytostasis. Cells were seeded in 96-well plates the day before the assay. Cells were treated with the compounds for 48 h. Then medium was removed, and cells were fixed with 10% trichloroacetic acid. Fixed cells were washed in distilled water 3 times, followed by staining with SRB (0.4 m/V% dissolved in 1% acetic acid) for 10 min. Stained cells were washed in 1% acetic acid 5 times; acetic acid was removed, and cells were left to dry. Protein-bound SRB was released by adding 100 μL 10 mM Tris base. Plates were measured in a plate photometer (Thermo Scientific Multiscan GO spectrophotometer, Waltham, MA, USA) at 540 nm. On each plate, wells were designed to contain vehicle-treated cells. In calculations, the readings for these wells were considered to be 1, and all readings were expressed relative to these values.
# as §2
# [7] = Distribution coefficient (logD), n-octanol-PBS; type: physicochemical; conditions: n-octanol-PBS (pH = 7.4) system
# Method: The logD values of the newly synthesized complexes were determined according to a procedure described in our previous publications. page 64: Ir-7b +1.17 Rh-7b +1.41 Ru-7c +1.31 Os-7c +1.59 Ir-7c +1.40 Rh-7c +1.13 Ru-7d +1.26 Os-7d +1.42 Ir-7d +1.30 Rh-7d +1.04 Ru-7e +2.22 Os-7e +2.21 Ir-7e +1.39 Rh-7e +1.66 *logD was determined in an n-octanol-PBS (pH = 7.4) system 64 (14 pictures or pasted objects on this page, not shown here)
# [8] = Enterococcus, clinical isolate 25,051 VRE, read-out: MIC 25,051 VRE
# [9] = Enterococcus, clinical isolate 25,498 VRE, read-out: MIC 25,498 VRE
# [10] = Enterococcus, clinical isolate 27,085 VRE, read-out: MIC 27,085 VRE
# [11] = Staphylococcus aureus, ATCC29213, 24 h
# [12] = Staphylococcus aureus, clinical isolate 20,426 MRSA, read-out: MIC 20,426 MRSA
# [13] = Staphylococcus aureus, clinical isolate 24,035 MRSA, read-out: MIC 24,035 MRSA
# [14] = Staphylococcus aureus, clinical isolate 24,268 MRSA, read-out: MIC 24,268 MRSA
# [15] = Staphylococcus aureus, clinical isolate 24,272 MRSA, read-out: MIC 24,272 MRSA
# [16] = Staphylococcus aureus, clinical isolate 24,328 MRSA, read-out: MIC 24,328 MRSA
# [17] = Staphylococcus aureus, clinical isolate 24,408 MRSA, read-out: MIC 24,408 MRSA
structure (smiles),measurement,setting,value
"N[C@@H]1[C@@H](OCc2ccccc2)[C@H](OCc2ccccc2)[C@@H](COCc2ccccc2)O[C@H]1c1cnccn1 [Complex 3d, 2-(2′-Amino-2′-deoxy-3′,4′,6′-tri-O-benzyl-β-D-glucopyranosyl)pyrazine]",A2780 MTT Max Inhibition,[1],no activity
same,MIC,[2]; [8],> 40 µM
same,MIC,[2]; [9],> 40 µM
same,MIC,[2]; [10],> 40 µM
same,MIC,[3]; [11],> 40 µM
same,MIC,[4]; Enterococcus faecalis,> 40 µM
same,MIC,[5]; [12],> 40 µM
same,MIC,[5]; [13],> 40 µM
same,MIC,[5]; [14],> 40 µM
same,MIC,[5]; [15],> 40 µM
same,MIC,[5]; [16],> 40 µM
same,MIC,[5]; [17],> 40 µM
"N[C@@H]1[C@@H](O)[C@H](O)[C@@H](CO)O[C@H]1c1ccccn1 [Complex 5a, 2-(2′-Amino-2′-deoxy-β-D-glucopyranosyl)pyridine]",A2780 MTT Max Inhibition,[1],did not exhibit any biological activity
same,A2780 SRB Max Inhibition,[6],did not exhibit any biological activity
"N[C@@H]1[C@@H](OC(=O)c2ccccc2)[C@H](OC(=O)c2ccccc2)[C@@H](COC(=O)c2ccccc2)O[C@H]1c1ncccn1 [Complex 7c, 2-(2′-Amino-2′-deoxy-3′,4′,6′-tri-O-benzoyl-β-D-glucopyranosyl)pyrimidine]",inhibition at 100 µM,[1],26.3%
same,A2780 SRB Max Inhibition,[6],79.53%
"N[C@@H]1[C@@H](OC(=O)c2ccccc2)[C@H](OC(=O)c2ccccc2)[C@@H](COC(=O)c2ccccc2)O[C@H]1c1cnccn1 [Complex 7d, 2-(2′-Amino-2′-deoxy-3′,4′,6′-tri-O-benzoyl-β-D-glucopyranosyl)pyrazine]",inhibition at 100 µM,[1],18.1%
same,A2780 SRB Max Inhibition,[6],73.37%
"N[C@@H]1[C@@H](OC(=O)c2ccccc2)[C@H](OC(=O)c2ccccc2)[C@@H](COC(=O)c2ccccc2)O[C@H]1c1ccc2ccccc2n1 [Complex 7e, 2-(2′-Amino-2′-deoxy-3′,4′,6′-tri-O-benzoyl-β-D-glucopyranosyl)quinoline]",inhibition at 100 µM,[1],13.6%
same,MIC,[2]; [8],> 40 µM
same,MIC,[2]; [9],> 40 µM
same,MIC,[2]; [10],> 40 µM
same,MIC,[3]; [11],> 40 µM
same,MIC,[4]; Enterococcus faecalis,> 40 µM
same,A2780 SRB Max Inhibition,[6],45.20%
same,MIC,[5]; [12],> 40 µM
same,MIC,[5]; [13],> 40 µM
same,MIC,[5]; [14],> 40 µM
same,MIC,[5]; [15],> 40 µM
same,MIC,[5]; [16],> 40 µM
same,MIC,[5]; [17],> 40 µM
Cc1c(C)c(C)[c-](C)c1C.F[P-](F)(F)(F)(F)F.N[C@@H]1[C@@H](OC(=O)c2ccccc2)[C@H](OC(=O)c2ccccc2)[C@@H](COC(=O)c2ccccc2)O[C@H]1c1cnccn1.[Cl][Ir+2] [Ir-7d],A2780 MTT Max Inhibition,[1],38.71%
same,logD,[7],1.30
same,A2780 SRB Max Inhibition,[6],80.44%
Cc1ccc(C(C)C)cc1.F[P-](F)(F)(F)(F)F.N[C@@H]1[C@@H](OC(=O)c2ccccc2)[C@H](OC(=O)c2ccccc2)[C@@H](COC(=O)c2ccccc2)O[C@H]1c1cnccn1.[Cl][Os+] [Os-7d],A2780 MTT Max Inhibition,[1],46.72%
same,logD,[7],1.42
same,A2780 SRB Max Inhibition,[6],80.44%
Cc1ccc(C(C)C)cc1.F[P-](F)(F)(F)(F)F.N[C@@H]1[C@@H](OC(=O)c2ccccc2)[C@H](OC(=O)c2ccccc2)[C@@H](COC(=O)c2ccccc2)O[C@H]1c1ccc2ccccc2n1.[Cl][Os+] [Os-7e],A2780 MTT Max Inhibition,[1],27.04%
same,MIC,"[2]; clinical isolate 25,051 VRE, read-out: MIC 25,051 VRE",>40 µM
same,MIC,"[2]; clinical isolate 25,498 VRE, read-out: MIC 25,498 VRE",>40 µM
same,MIC,"[2]; clinical isolate 27,085 VRE, read-out: MIC 27,085 VRE",>40 µM
same,logD,[7],2.21
same,MIC,[3]; 24 h,>40 µM
same,MIC,[4],>40 µM
same,A2780 SRB Max Inhibition,[6],67.50%
same,MIC,"[5]; clinical isolate 20,426 MRSA, read-out: MIC 20,426 MRSA",>40 µM
same,MIC,"[5]; clinical isolate 24,035 MRSA, read-out: MIC 24,035 MRSA",>40 µM
same,MIC,"[5]; clinical isolate 24,268 MRSA, read-out: MIC 24,268 MRSA",>40 µM
same,MIC,"[5]; clinical isolate 24,272 MRSA, read-out: MIC 24,272 MRSA",>40 µM
same,MIC,"[5]; clinical isolate 24,328 MRSA, read-out: MIC 24,328 MRSA",>40 µM
same,MIC,"[5]; clinical isolate 24,408 MRSA, read-out: MIC 24,408 MRSA",>40 µM
Cc1c(C)c(C)[c-](C)c1C.F[P-](F)(F)(F)(F)F.N[C@@H]1[C@@H](OC(=O)c2ccccc2)[C@H](OC(=O)c2ccccc2)[C@@H](COC(=O)c2ccccc2)O[C@H]1c1cnccn1.[Cl][Rh+2] [Rh-7d],A2780 MTT Max Inhibition,[1],18.08%
same,logD,[7],1.04
same,A2780 SRB Max Inhibition,[6],64.76%
Cc1ccc(C(C)C)cc1.F[P-](F)(F)(F)(F)F.N[C@@H]1[C@@H](O)[C@H](O)[C@@H](CO)O[C@H]1c1ccccn1.[Cl][Ru+] [Ru-5a],A2780 MTT Max Inhibition,[1],did not exhibit any biological activity
same,logD,[7],−1.91
same,A2780 SRB Max Inhibition,[6],did not exhibit any biological activity
Cc1ccc(C(C)C)cc1.F[P-](F)(F)(F)(F)F.N[C@@H]1[C@@H](OC(=O)c2ccccc2)[C@H](OC(=O)c2ccccc2)[C@@H](COC(=O)c2ccccc2)O[C@H]1c1cnccn1.[Cl][Ru+] [Ru-7d],A2780 MTT Max Inhibition,[1],64.04%
same,logD,[7],1.26
same,A2780 SRB Max Inhibition,[6],80.44%
